# What was measured:
# Format in all cases: cell-based, human
# [1] = tested on: TCR NYN-2 (Jurkat E6-1 TPR cells)
# [2] = tested on: TCR NYN-3 (Jurkat E6-1 TPR cells)
# [3] = tested on: TCR NYN-1 (Jurkat E6-1 TPR cells)
# [4] = tested on: NYN peptide-specific TCRs (NYN-1 to NYN-4 Jurkat E6-1 TPR cell lines)
Sequence,effect of the mutation on response / affinity of NYN-2 (in words) [1],effect of the mutation on response / affinity of NYN-3 (in words) [2],effect of the mutation on response / affinity of NYN-1 (in words) [3],effect of the mutation on the T-cell response / recognition (in words) [4]
NYDYMYRLF [N450D + L452M],slightly disrupted the response,slightly disrupted the response,not,–
NYDYWYRLF [N450D + L452W],increased the affinity,increased the affinity,–,did not affect the T-cell response
